Assay [1] deals with Gal4 DNA binding domain fused to the LBD of LXRα in HEK293 cells (Homo sapiens (Human), UniProt Q13133). As to the kind of experiment: LXR luciferase transcriptional reporter gene assay, agonist mode, LXRα. As to conditions: for EC50: read-out: Cell LXRα EC50. The assay is classed as cell-based. (In general: Reporter assays use an easily measured gene product as a stand-in for the process of interest.)

A further assay concerns the target LXR α LBD protein (Homo sapiens (Human), UniProt Q13133). As to the kind of experiment: LXR α radioligand binding assay (SPA, competition with [3H]TO901317). As to conditions: read-out: LXRα Binding Ki.
Assay [2] concerns the target Gal4 DNA binding domain fused to the LBD of LXRβ in HEK293 cells (Homo sapiens (Human), UniProt P55055). As to the kind of experiment: cell-based.
In the next assay the target is LXR β LBD protein (Homo sapiens (Human), UniProt P55055). The experiment in a line: biochemical. The assay is classed as binding.
The mark [3] stands for this setting: agonist mode, read-out: Cell LXRβ EC50.
Setting [4] is: Biological Test Example 2, agonist mode.
The mark [5] stands for this setting: Biological Test Example 1, read-out: LXRβ Binding Ki.

Like-named read-outs stand apart in the source and are kept apart here. Some results are limits rather than exact numbers.

For orientation: EC50 means the midpoint of the concentration-response curve. The term Ki denotes the equilibrium dissociation constant of an inhibitor or competing ligand from its target.

Sequence of LXR β LBD protein (P55055 222-460 limits assumed): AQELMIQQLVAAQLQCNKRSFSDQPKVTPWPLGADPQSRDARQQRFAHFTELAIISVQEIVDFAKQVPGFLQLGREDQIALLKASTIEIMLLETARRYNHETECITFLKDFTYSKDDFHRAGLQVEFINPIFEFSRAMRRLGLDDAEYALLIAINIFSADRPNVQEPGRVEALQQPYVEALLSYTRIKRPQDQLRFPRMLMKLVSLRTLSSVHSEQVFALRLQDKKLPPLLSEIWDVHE
Sequence of Gal4 DNA binding domain fused to the LBD of LXRβ in HEK293 cells (P55055 222-460 limits assumed): as above
Sequence of Gal4 DNA binding domain fused to the LBD of LXRα in HEK293 cells (Q13133 209-447): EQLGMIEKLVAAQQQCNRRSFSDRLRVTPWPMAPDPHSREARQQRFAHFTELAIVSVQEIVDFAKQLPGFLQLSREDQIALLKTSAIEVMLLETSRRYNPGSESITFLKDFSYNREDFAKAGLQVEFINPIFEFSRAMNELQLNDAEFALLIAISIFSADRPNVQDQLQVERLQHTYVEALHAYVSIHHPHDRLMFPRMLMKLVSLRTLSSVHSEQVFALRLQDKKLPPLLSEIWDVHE
Sequence of LXR α LBD protein (Q13133 209-447): as above

As for `CC(C)[C@H]1CN(c2ccc(CO)c(S(C)(=O)=O)c2)CCN1C[C@@H]1CC[C@@H](C(F)(F)F)OC1` [Cpd No 49-3, (4-((S)-3-isopropyl-4-(((3S,6S)-6-(trifluoromethyl)tetrahydro-2H-pyran-3-yl)methyl)piperazin-1-yl)-2-(methylsulfonyl)phenyl)methanol], in assay [1], the “Cell LXRα efficacy” value is recorded as 178 (75) % and the concentration for a half-maximal effect (EC50) is 178 nM. Moreover, at LXR α LBD protein, the inhibition constant (Ki) was 166 nM. Moreover, in assay [2], the “Cell LXRβ efficacy” value is reported as 58 (78) % and the midpoint of the response, the EC50, lay at 58 nM. At LXR β LBD protein (read-out: LXRβ Binding Ki), the Ki came out at 17 nM.
As for `CC(C)[C@H]1CN(c2ccc(CO)c(S(C)(=O)=O)c2)CCN1C[C@H]1CC[C@H](C(F)(F)F)OC1` (single isomer, unassigned) [Cpd No 49-2], in assay [1], the “Cell LXRα efficacy” value was 122 (63) % and the 50% effective concentration (EC50) was 122 nM. The inhibition constant Ki on LXR α LBD protein was 194 nM. In addition, in assay [2], the “Cell LXRβ efficacy” value is 78 (83) % and a half-maximal response (EC50) required 78 nM. For the same compound, at LXR β LBD protein (read-out: LXRβ Binding Ki), the Ki is 23 nM.
Take `CS(=O)(=O)c1cccc(N2CCN(C[C@H]3CC[C@@](C)(O)CC3)[C@H](c3ccccc3)C2)c1` (single isomer, unassigned) [48-6]: the EC50 in assay [1] and in assay [2] (setting [3]) was above 20000 nM in each case. Moreover, the results for the Ki on LXR α LBD protein and at LXR β LBD protein (read-out: LXRβ Binding Ki) were 30900 nM and above 2500 nM, respectively.
Take `CO[C@@H](C)[C@@H]1CN(c2ccc(CO)c(S(C)(=O)=O)c2)CCN1c1ncc(CO)c(C(F)(F)F)n1` (single isomer, unassigned) [11-4]: the “Cell LXRα efficacy” value in assay [1] was 3106 (30) %. Moreover, the EC50 in assay [1] (agonist mode) stood at 3110 nM; in assay [2], 347 nM. The Ki at LXR α LBD protein came out at 1890 nM; at LXR β LBD protein, 159 nM. Besides, the “Cell LXRβ efficacy” value in assay [2] (agonist mode) was 347 (24) %.
Take `Cc1nnc(-c2ccc(N3CCN(c4ncc(CO)c(C(F)(F)F)n4)[C@H](C(C)C)C3)cc2S(C)(=O)=O)o1` [11-9, (R)-(2-(2-isopropyl-4-(4-(5-methyl-1,3,4-oxadiazol-2-yl)-3-(methylsulfonyl)phenyl)piperazin-1-yl)-4-(trifluoromethyl)pyrimidin-5-yl)methanol]: the “Cell LXRα efficacy” value in assay [1] is listed as 3283 (31) %. Moreover, the half-maximal effective concentration (EC50) in assay [1] stood at 3280 nM; in assay [2], 603 nM. The Ki on LXR α LBD protein was determined as 1970 nM; at LXR β LBD protein (read-out: LXRβ Binding Ki) it was 247 nM. Also, the “Cell LXRβ efficacy” value in assay [2] (agonist mode) is listed as 603 (39) %.
On to `CC(C)[C@@H]1CN(c2cccc(S(C)(=O)=O)c2)CCN1c1ncc(OC(F)F)cn1` [7-11, (R)-5-(difluoromethoxy)-2-(2-isopropyl-4-(3-(methylsulfonyl)phenyl)piperazin-1-yl)pyrimidine], for which the “Cell LXRα efficacy” value in assay [1] was 3658 (71) %. In addition, the results for the EC50 in assay [1] and in assay [2] were 3660 nM and 1200 nM, respectively. The inhibitory constant (Ki) at LXR α LBD protein was found to be 898 nM; at LXR β LBD protein (read-out: LXRβ Binding Ki) it was 78 nM. The “Cell LXRβ efficacy” value in assay [2] (agonist mode) was 1198 (48) %.
In the case of `CC(C)[C@H]1CN(c2ccc(C#N)c(S(C)(=O)=O)c2)CCN1Cc1ccc(C(F)(F)F)cc1` [46-9, (S)-4-(3-isopropyl-4-(4-(trifluoromethyl)benzyl)piperazin-1-yl)-2-(methylsulfonyl)benzonitrile], the “Cell LXRα efficacy” value in assay [1] was 2479 (57) %. The EC50 was 2480 nM in assay [1] (agonist mode) and 1080 nM in assay [2]. Further, the Ki was above 3330 nM on LXR α LBD protein and 231 nM on LXR β LBD protein (read-out: LXRβ Binding Ki). Further, the “Cell LXRβ efficacy” value in assay [2] (agonist mode) was 1078 (49) %.
Regarding `CO[C@]1(C(F)(F)F)CC[C@H](CN2CCN(c3ccc(CO)c(S(C)(=O)=O)c3)C[C@@H]2C(C)C)CC1` (single isomer, unassigned) [Cpd No 48-80], the “Cell LXRα efficacy” value in assay [1] is reported as 27 (73) %. Also, the 50% effective concentration (EC50) in assay [1] (setting [4]) was found to be 27 nM; in assay [2], 18 nM. Further, the Ki at LXR α LBD protein is 30 nM; on LXR β LBD protein (setting [5]), 3 nM. The “Cell LXRβ efficacy” value in assay [2] (setting [4]) is reported as 18 (99) %.
As for `CC(C)[C@H]1CN(c2cccc(S(C)(=O)=O)c2)CCN1C[C@H]1CC[C@@H](C(F)(F)F)OC1` (single isomer, unassigned) [Cpd No 49-5], in assay [1], the “Cell LXRα efficacy” value was 578 (64) % and the 50% effective concentration (EC50) was determined as 578 nM. Also, at LXR α LBD protein, the Ki is 421 nM. In addition, in assay [2], the “Cell LXRβ efficacy” value is 266 (77) % and the EC50 was 266 nM. In addition, the Ki at LXR β LBD protein is 70 nM.
For `CC(C)[C@@H]1CN(c2ccc(F)c(S(C)(=O)=O)c2)CCN1C[C@H]1CC[C@@H](C(F)(F)F)CC1` [48-24, (R)-4-(4-fluoro-3-(methylsulfonyl)phenyl)-2-isopropyl-1-(((1s,4S)-4-(trifluoromethyl)cyclohexyl)methyl)piperazine], in assay [1], the “Cell LXRα efficacy” value was 1347 (88) %. Further, the concentration giving a half-maximal response (EC50) in assay [1] stood at 1350 nM; in assay [2] (setting [3]), 563 nM. Moreover, the Ki on LXR α LBD protein amounted to 765 nM; on LXR β LBD protein (read-out: LXRβ Binding Ki), 55 nM. Moreover, the “Cell LXRβ efficacy” value in assay [2] (agonist mode) stood at 63%.
With `CC(=O)c1cnc(N2CCN(c3ccc(F)c(S(C)(=O)=O)c3)C[C@H]2C(C)C)nc1C(F)(F)F` [Cpd No 13-1, (R)-1-(2-(4-(4-fluoro-3-(methylsulfonyl)phenyl)-2-isopropylpiperazin-1-yl)-4-(trifluoromethyl)pyrimidin-5-yl)ethan-1-one], in assay [1], the “Cell LXRα efficacy” value is 253 (63) %. Further, the results for the EC50 in assay [1] and in assay [2] were 253 nM and 49 nM, respectively. Besides, the figures for the inhibitory constant (Ki) on LXR α LBD protein and on LXR β LBD protein were 62 nM and 3 nM, respectively. In addition, the “Cell LXRβ efficacy” value in assay [2] (agonist mode) is 49 (51) %.
Regarding `CC(C)[C@H]1CN(c2cccc(S(C)(=O)=O)c2)CCN1CC1CCC(C)(C)OC1` (stereo partly drawn) [51-3, (2S)-1-((6,6-dimethyltetrahydro-2H-pyran-3-yl)methyl)-2-isopropyl-4-(3-(methylsulfonyl)phenyl)piperazine], in assay [1], the “Cell LXRα efficacy” value is recorded as 3460 (51) %. Besides, the 50% effective concentration (EC50) turned out to be 3460 nM in assay [1] (setting [4]) and 590 nM in assay [2]. Also, the inhibitory constant (Ki) on LXR α LBD protein is 3170 nM; at LXR β LBD protein (setting [5]), 482 nM. Besides, the “Cell LXRβ efficacy” value in assay [2] (setting [4]) is 590 (50) %.
With `CC[C@H](O)c1cnc(N2CCN(c3ccc(F)c(S(C)(=O)=O)c3)C[C@H]2C(C)C)nc1C(F)(F)F` (single isomer, unassigned) [12-6], in assay [1], the “Cell LXRα efficacy” value is 2429 (43) %. Further, the EC50 in assay [1] (agonist mode) amounted to 2430 nM; in assay [2] it was 289 nM. Besides, the Ki at LXR α LBD protein amounted to 266 nM; on LXR β LBD protein (read-out: LXRβ Binding Ki) it was 22 nM. Also, the “Cell LXRβ efficacy” value in assay [2] (agonist mode) is reported as 289 (29) %.
On to `CC(C)[C@H]1CN(c2ccc(CO)c(S(C)(=O)=O)c2)CCN1c1ncc(C(C)(C)O)c(C(F)(F)F)n1` [10-5, (S)-2-(2-(4-(4-(hydroxymethyl)-3-(methylsulfonyl)phenyl)-2-isopropylpiperazin-1-yl)-4-(trifluoromethyl)pyrimidin-5-yl)propan-2-ol], for which the “Cell LXRα efficacy” value in assay [1] is listed as 3627 (67) %. For the same compound, the values for the EC50 in assay [1] (agonist mode) and in assay [2] were 3630 nM and 980 nM, respectively. The Ki came to 1280 nM at LXR α LBD protein and 230 nM on LXR β LBD protein (read-out: LXRβ Binding Ki). The “Cell LXRβ efficacy” value in assay [2] (agonist mode) is given as 980 (58) %.
For `CS(=O)(=O)c1cccc(N2CCN(C[C@H]3CC[C@](C)(O)CC3)[C@@H](c3ccccc3)C2)c1` (single isomer, unassigned) [Cpd No 48-7], the “Cell LXRα efficacy” value in assay [1] is on record as 4661 (6) %. The 50% effective concentration (EC50) in assay [1] is 4660 nM; in assay [2] (setting [3]), above 20000 nM. In addition, the inhibition constant (Ki) on LXR α LBD protein worked out at 4530 nM; on LXR β LBD protein (read-out: LXRβ Binding Ki), 465 nM.

The values above are taken from US10144715B2, “Piperazine derivatives as liver X receptor modulators” (priority 2014, dated 2018).
